Laboratory results as given in publication PMC6151488, “Structure, Absolute Configuration, and Antiproliferative Activity of Abietane and Icetexane Diterpenoids from Salvia ballotiflora” (Molecules : A Journal of Synthetic Chemistry and Natural …, 2017).
Several values for one entry are separate records, joined by “and”; a condition that tells them apart may be missing. Equal values may be shown once. Read-outs that look alike come from different tables or passages of the source.

Key:
[1] = tested on: HCT-15 (human colon cancer); assay: Sulforhodamine B (SRB) cytotoxicity assay, HCT-15; format: cell-based
Excerpt: (§1) The natural products were screened in vitro against the following human cancer cell lines: human mammary adenocarcinoma (MCF-7), human chronic myelogenous leukemia (K562), human glioblastoma (U251), human lung adenocarcinoma (SKLU-1), human colon cancer (HCT-15), human prostate cancer (PC-3), healthy gingival human fibroblasts (FGH), and normal monkey kidney cell lines, which were supplied by the National Cancer Institute (NCI, USA) and American Type Culture Collection (ATTC). The human tumor cytotoxicity was determined using the protein-binding dye sulforhodamine B (SRB) in a microculture assay to measure cell growth, as described in the protocol established by the NCI [30]. The cell lines were cultured in RPMI-1640 medium supplemented with 10% fetal bovine serum, 2 mM L-glutamine, 10,000 units/mL penicillin G sodium, 10,000 μg/mL streptomycin sulfate, and 25 μg/mL amphotericin B (Gibco), and 1% non-essential amino acids (Gibco). They were maintained at 37 °C in a humidified atmosphere with 5% CO2. The viability of the cells used in the experiments exceeded 95%, as determined with trypan blue.
(§2) Cytotoxicity after treatment of the tumors cells and normal cells with the test compounds were determined using the protein-binding dye sulforhodamine B (SRB) in a microculture assay to measure cell growth. The cells were removed from the tissue culture flasks by treatment with trypsin, and diluted with fresh media. Of these cell suspensions, 100 μL containing 5000–10,000 cells per well were pipetted into 96-well microtiter plates (Costar) and the material was incubated at 37 °C for 24 h in a 5% CO2 atmosphere. Subsequently, 100 μL of a solution of the compound obtained by diluting the stocks were added to each well. The cultures were exposed to the compound for 48 h. After the incubation period, cells were fixed to the plastic substratum by the addition of 50 μL of cold 50% aqueous trichloroacetic acid. The plates were incubated at 4 °C for 1 h, washed with tap water, and air-dried. The trichloroacetic-acid-fixed cells were stained by the addition of 0.4% SRB. The free SRB solution was then removed by washing with 1% aqueous acetic-acid. The plates were air-dried, and the bound dye was dissolved by the addition of 10 mM unbuffered Tris base (100 μL). The plates were placed on a shaker for 10 min, and the absorption was determined at 515 nm using an ELISA plate reader (Bio-Tex Instruments).

[2] = tested on: U251 (human glioblastoma); assay: Sulforhodamine B (SRB) cytotoxicity assay, U251; format: cell-based
Excerpt: as §1, with “CO2.” for “CO2. The viability of the cells used in the experiments exceeded 95%, as determined with trypan blue.”
as §2

[3] = tested on: six human cancer cell lines (U251, PC-3, K562, HCT-15, MCF-7, SKLU-1) and FGH; assay: SRB primary screening, whole panel (result in words); format: cell-based; details: primary screening at 50.0 μM, complete panel
Description: The same biological activity was also recently described for icetexane-derivatives isolated from Premna and Amentotaxus species. […] These facts prompted us to assay diterpenoids 3, 4, 6–8 and 10 for antiproliferative activity using six human cancer cell lines (U251, PC-3, K562, HCT-15, MCF-7, and SKLU-1), and a primary culture of healthy gingival human fibroblasts (FGH) at 1.0 or 50.0 μM (when cytotoxicity at 50.0 μM results were too high). […] Overall, the antiproliferative activity determined for 7 was lower than that observed for 6.
as §1
Cytotoxicity after treatment of the tumors cells and normal cells with the test compounds were determined using the protein-binding dye sulforhodamine B (SRB) in a microculture assay to measure cell growth. […] The plates were placed on a shaker for 10 min, and the absorption was determined at 515 nm using an ELISA plate reader (Bio-Tex Instruments).

[4] = tested on: K562 (human chronic myelogenous leukemia); assay: Sulforhodamine B (SRB) cytotoxicity assay, K562; format: cell-based; details: Homo sapiens, K562
Excerpt: as §1, §2

[5] = tested on: SKLU-1 (human lung adenocarcinoma); assay: Sulforhodamine B (SRB) cytotoxicity assay, SKLU-1; format: cell-based; details: for inhibition at 50 µM: primary screening at 50.0 μM, NC = No cytotoxic; for IC50: SRB assay, 48 h exposure, mean ± SD, read-out: IC50 antiproliferative activity, SKLU-1
Excerpt: as §1, §2

[6] = tested on: MCF-7 (human mammary adenocarcinoma); assay: Sulforhodamine B (SRB) cytotoxicity assay, MCF-7; format: cell-based; details: for inhibition at 50 µM: primary screening at 50.0 μM
Excerpt: as §1, §2

[7] = Scavenging activity on free radical DPPH; details: 30 min, 37 °C; for IC50: DPPH 100 μM, mean ± SEM; for DPPH inhibitory effect (%): at 100 μM
Description: Free radical scavenging activity was measured using an adapted method of Mellors and Tappel. The test was carried out in 96-well microplates. A 50-μL aliquot of the solution of the test compound was mixed with 150 μL of an ethanol solution of DPPH (final concentration 100 μM). The mixture was incubated at 37 °C for 30 min, and the absorbance was then measured at 515 nm using a BioTek microplate reader SYNERGY HT. The percent inhibition was determined by comparison with a 100-μM DPPH ethanol blank solution.

[8] = tested on: PC-3 (human prostate cancer); assay: Sulforhodamine B (SRB) cytotoxicity assay, PC-3; format: cell-based
Excerpt: as §1, §2

TPA-induced ear edema = TPA-induced ear edema test in mice; format: in vivo; details: mice CD-1, 1.0 μmol ear^-1 topical, 4 h after TPA, mean ± SEM; for Inhibition of Edema (%): NA = Non-active
Description: Male CD-1 mice weighing 25–30 g were maintained under standard laboratory conditions in the animal house (temperature 24 ± 2 °C) in a 12/12 h light/dark cycle, fed a laboratory diet and water ad libitum, following the Mexican official norm NOM-062-Z00-1999.
The TPA-induced ear edema assay in mice was performed as reported in reference. A solution of TPA (2.5 μg) in ethanol (10 μL) was applied topically to both faces (5 μL each ear) of the right ear of the mice, 10 min after solutions of the test substances in their respective solvents were applied (10 μL each face). The left ear received ethanol (10 μL) first, followed by 20 μL of the respective solvent. The mice were killed with CO2 four hours later. A 7-mm diameter plug was removed from each ear. The swelling was assessed as the difference in weight between the left and the right ear. Control animals received the correspondent solvent in each case. Edema inhibition (EI %) was calculated by the equation EI % = 100 − (B × 100/A), where A is the edema induced by TPA alone and B is the edema induced by TPA plus the sample. Indomethacin and celecoxib were used as reference compounds.

[9] = tested on: COS-7 normal monkey kidney; assay: Sulforhodamine B (SRB) cytotoxicity assay, COS-7 normal cell line; format: cell-based; details: Primates, mean ± SD
Excerpt: as §1
as §2, with “The plates were incubated at 4 °C for 1 h, washed with tap water, and air-dried. The trichloroacetic-acid-fixed cells were stained by the addition of 0.4% SRB. The free SRB solution was then removed by washing with 1% aqueous acetic-acid. The plates were air-dried, and the bound dye was dissolved by the addition of 10 mM unbuffered Tris base (100 μL).” left out

[10] = Homo sapiens, SK-LU-1, mean n = 2, read-out: Antiproliferative activity (%), SKLU-1
[11] = Homo sapiens, MCF7, mean n = 2, NC = No cytotoxic, read-out: Antiproliferative activity (%), MCF-7
[12] = primary screening at 1.0 μM, mean n = 2

In the case of `CC(C)c1c(O)c(O)c2c(c1O)C(=O)CC1C3(CCCC1(C)C(=O)O3)C2` (centres unmarked) [Compound 4, 6,7,11,14-Tetrahydro-7-oxoicetexone], the inhibition at 50 µM ([1]; primary screening at 50.0 μM, mean n = 2, NC = No cytotoxic, read-out: Antiproliferative activity (%), HCT-15) is reported as 76.7%, the inhibition at 50 µM ([2]; Homo sapiens, U-251, primary screening at 50.0 μM, mean n = 2, NC = No cytotoxic, read-out: Antiproliferative activity (%), U251) is reported as 100% and the “Toxicity to the complete panel (in words)” value [3] is reported as “very toxic”. It also gave an inhibition at 50 µM ([4]; primary screening at 50.0 μM, mean n = 2, NC = No cytotoxic, read-out: Antiproliferative activity (%), K562) of 100%, an inhibition at 50 µM [5, 10] of 96.9% and an inhibition at 50 µM [6, 11] of 99%. The IC50 [7] was 98400 ± 3300 nM, the “DPPH inhibitory effect (%)” value [7] was 64.5% and the inhibition at 50 µM ([8]; primary screening at 50.0 μM, mean n = 2, NC = No cytotoxic, read-out: Antiproliferative activity (%), PC-3) was 80.3%. The melting point was 130 to 135 °C.

For `COc1ccc2c(c1)c(CC(=O)O)c(C)n2C(=O)c1ccc(Cl)cc1` [Indometacin, Indomethacin, reference compound], the “Edema” value (TPA-induced ear edema) was 2.88 ± 0.73 mg, the “Inhibition of Edema (%)” value (TPA-induced ear edema) was 78.76 ± 7.68 % and the “Inhibition of Edema (%)” value (TPA-induced ear edema; listed as indomethacine) was 78.8 ± 7.7%.

In the case of `CC(C)C1=C(O)C(=O)C2=CC3=CCCC4(C)C(=O)OC(C=C2C1=O)C34` (centres unmarked) [Compound 6, Anastomosine], the “Edema” value (TPA-induced ear edema) is reported as 15.97 ± 0.61 mg, the “Inhibition of Edema (%)” value (TPA-induced ear edema) is reported as “non-active” and the IC50 [9] is reported as 610 ± 7 nM. The inhibition at 1 µM ([1]; primary screening at 1.0 μM, mean n = 2, read-out: Antiproliferative activity (%), HCT-15) was 85.6%, the inhibition at 1 µM ([2]; Homo sapiens, U-251, primary screening at 1.0 μM, mean n = 2, read-out: Antiproliferative activity (%), U251) was 98.4% and the “Antiproliferative activity (%), U251” value [2, 12] was “very toxic”. The “SI (selectivity index), U251” value ([2]; quotient of IC50 of COS-7 / IC50 of U251) was 2.3, the inhibition at 1 µM ([4]; primary screening at 1.0 μM, mean n = 2, read-out: Antiproliferative activity (%), K562) was 76.4% and the IC50 ([5]; Homo sapiens, SK-LU-1, 48 h) was 820 ± 60 nM. For the same compound, the inhibition at 1 µM ([5]; Homo sapiens, SK-LU-1, primary screening at 1.0 μM, mean n = 2, read-out: Antiproliferative activity (%), SKLU-1) was 100%, the IC50 [5] was 460 ± 50 nM and the “Antiproliferative activity (%), SKLU-1” value [5, 12] was “very toxic”. For the same compound, the “SI (selectivity index), SKLU-1” value ([5]; quotient of IC50 of COS-7 / IC50 of SKLU-1) was 1.3, the inhibition at 1 µM ([6]; Homo sapiens, MCF7, primary screening at 1.0 μM, mean n = 2, NC = No cytotoxic, read-out: Antiproliferative activity (%), MCF-7) was 51.3% and the “Antiproliferative activity (%), MCF-7” value ([6]; primary screening at 1.0 μM, mean n = 2, NC = No cytotoxic) was “moderately toxic”. The “DPPH inhibitory effect (%)” value [7] was 8.2%, the inhibition at 1 µM ([8]; primary screening at 1.0 μM, mean n = 2, read-out: Antiproliferative activity (%), PC-3) was 82.3% and the melting point was 220 to 224 °C.

For `Cc1ccc(-c2cc(C(F)(F)F)nn2-c2ccc(S(N)(=O)=O)cc2)cc1` [Celecoxib, celecoxib, reference compound], the “Edema” value (TPA-induced ear edema) was 6.94 ± 1.56 mg, the “Inhibition of Edema (%)” value (TPA-induced ear edema) was 54.34 ± 10.28% and the “Inhibition of Edema (%)” value (TPA-induced ear edema; listed as celecoxib) was 54.3 ± 10.3%.

Compound `O=c1c(O)c(-c2ccc(O)c(O)c2)oc2cc(O)cc(O)c12` [quercetin, reference compound] has an IC50 [7] of 10900 ± 500 nM.

In the case of `CC(C)C1=C(O)C(=O)C2=C(C1=O)C(O)CC1C3(C)CCCC21C(O)OC3` (centres unmarked) [Compound 10, conacytone], the “Edema” value (TPA-induced ear edema) is reported as 11.77 ± 047 mg, the “Inhibition of Edema (%)” value (TPA-induced ear edema) is reported as 25.4 ± 3.0% and 25.37 ± 2.98 % and the “Toxicity to the complete panel (in words)” value [3] is reported as “no toxicity”. The inhibition at 50 µM [5, 10] was 11.8%, the inhibition at 50 µM [6, 11] was 14.7% and the “DPPH inhibitory effect (%)” value [7] was 4.8%.

In the case of `COc1cccc2c1C(=O)c1c(O)c3c(c(O)c1C2=O)C[C@@](O)(C(=O)CO)C[C@@H]3O[C@H]1C[C@H](N)[C@H](O)[C@H](C)O1` [Adriamicyn, adriamycin, reference compound], the IC50 [9] is reported as 250 ± 9 nM, the inhibition at 0.5 µM ([1]; positive control at 0.5 μM, mean n = 2, read-out: Antiproliferative activity (%), HCT-15) is reported as 86.9% and the IC50 ([2]; Homo sapiens, U-251, 48 h, SRB assay, 48 h exposure, mean ± SD, read-out: IC50 antiproliferative activity, U251) is reported as 80 ± 3 nM. For the same compound, the inhibition at 0.5 µM ([2]; Homo sapiens, U-251, positive control at 0.5 μM, mean n = 2, read-out: Antiproliferative activity (%), U251) was 96%, the IC50 ([4]; SRB assay, 48 h exposure, mean ± SD, read-out: IC50 antiproliferative activity, K562) was 200 ± 20 nM and the inhibition at 0.5 µM ([4]; positive control at 0.5 μM, mean n = 2, read-out: Antiproliferative activity (%), K562) was 100%. For the same compound, the IC50 ([5]; Homo sapiens, SK-LU-1, 48 h) was 50 ± 3 nM, the inhibition at 0.5 µM ([5]; Homo sapiens, SK-LU-1, positive control at 0.5 μM, mean n = 2, read-out: Antiproliferative activity (%), SKLU-1) was 90% and the IC50 ([6]; Homo sapiens, MCF7, SRB assay, 48 h exposure, mean ± SD, read-out: IC50 antiproliferative activity, MCF-7) was 230 ± 20 nM. It also gave an inhibition at 0.5 µM ([6]; Homo sapiens, MCF7, positive control at 0.5 μM, mean n = 2, read-out: Antiproliferative activity (%), MCF-7) of 99.1% and an inhibition at 0.5 µM ([8]; positive control at 0.5 μM, mean n = 2, read-out: Antiproliferative activity (%), PC-3) of 85.2%.

With `Cc1c(C)c2c(c(C)c1O)CC[C@@](C)(CCC[C@H](C)CCC[C@H](C)CCCC(C)C)O2` [α-tocopherol, reference compound] the IC50 [7] was 31700 ± 1040 nM.
